Data published in US20220339257A1, “METHODS TO INCREASE THE SENSITIVITY AND REVERSING THE RESISTANCE TO DRUGS” (Biomarker Strategies, LLC, priority 2019, published 2022).

Assays:
Assay type in all cases: cell-based
Ca-922 cell line = test: HoPI live cell staining; parameters: concentration or dose not given beside the values; settings: 24 hours
Source text: A double stain of Hoechst 33342 and propidium iodide allows for the determination of cell viability with high specificity and low background noise, as compared to trypan blue staining. Hoechst 33342 is a cell permeable blue fluorescent nuclear stain which will stain all cell types. Propidium iodide is a cell impermeable red fluorescent nuclear stain that will only bind to the nuclei of cells with compromised membranes (dead cells). The staining can be performed rapidly on live cell suspensions within 15 minutes. 25 uL of 4× Hoechst 33342 Solution (40 ug/mL) and 25 uL of 4×Propidium Iodide Solution are added to 50 uL of cell suspension. The suspension was gently mixed 10 times and 50 uL was immediately transferred to a microfluidic cell counting chip. A 365 nm LED was used to excite both Hoechst 33342 and propidium iodide. Images of the cells were captured using a 10× objective lens on an Olympus microscope using a Canon EOS 6D camera using an ISO of 800 and an exposure of 2 seconds; both JPEG and RAW images were saved for analysis. The blue channel was used to measure the total number of cells and the red channel was used to measure the number of dead cells. Cell counting was performed automatically by the Image Pro software (Media Cybernetics, Inc).
MTA and EM effects on apoptosis were measured by Hoechst-Propidium Iodide staining (HoPI). For the assay, cells were seeded in 6-well plates at 400K cells per well, in 2 mL of 10% FBS-containing media and incubated for 24 hours. At 24 hours, a 1 nM to […] range of MTA and/or 1 ng/mL to 1 mg/mL range of EM doses was added and incubated for 24 hours. After 24 hours incubation respective cells' media was collected, added the 1× HBSS wash from the plate in the respective tube. Adherent cells were detached by treating with Accutase for 6 minutes and collected in respective tubes. All samples were centrifuged for 5 minutes at 1200 RPM. The cell pellets were resuspended in PBS and centrifuged again for 5 minutes at 1200 RPM. Cell pellets were resuspended in 200 uL of PBS and mixed properly to get single cell suspension. 50 uL of cell suspension was added into separate tubes having 10 uL of a 2× HOPI solution (20 ug/mL Hoechst 33342 and 20 ug/mL propidium iodide solution) to get a final concentration of Hoechst 33342 and propidium iodide to […]. Make up the volume to 100 uL with 40 uL of PBS. Samples were mixed thoroughly for even cell staining and the microfluidsic chip wells were each filled with 10 uL of sample. Chips were then incubated in the dark for 20 minutes. A 365 nm LED was used to excite both Hoechst 33342 and propidium iodide as they were visualize under a microscope. Cell images were captured using a 10× objective lens on an Olympus microscope using a Canon EOS 6D camera with an ISO of 800 and an exposure of 2 seconds; both JPEG and RAW images were saved for analysis. The blue channel was used to measure the total number of cells and the red channel was used to measure the number of dead cells. For image analysis, a copy of the image was created and converted directly into an 8-bit gray scale image. A threshold was placed on the image to create a binary mask; the threshold level was 20 intensity units out of 255 intensity units. Next, a particle analysis algorithm was applied to the binary mask and a set of cellular regions (between 100 to 800 cellular regions per image) was created. The original image was then split into red, green and blue channels. The area, mean intensity, standard deviation of the mean intensity, minimum intensity, maximum intensity and perimeter were measured for each cellular region in the red channel and also in the blue channel. The green channel was discarded. To discern between live and dead cells, the maximum intensity in the red channel was used with a threshold of 100 intensity units. Double plots were created using the intensity of the blue channel (X-axis) and the intensity of the red channel (Y-axis). […]

[1] = system: panel of cell lines that included NSCLC, HNSCC, melanoma, and CRC; test: WST8 in vitro sensitivity to MTAs with and without EM
Experimental: Day 1: cells were harvested cells from flask (4 mL accutase for T175 for 3-5 minutes), and spin down for 5 mins at 1200 rpm. The supernatant was poured off, and the pellet gently resuspended in 1 mL media. Countess counts were performed, and the cells were diluted in media (10% FBS). With multi-channel pipette, 2500 cells were seeded in 100 uL of media (10% FBS) in each well of 96 well plate. The cells were let to adhere and grow for 24 hours. Day 2: serial drug dilutions of MTAs+/−EMs at 5× of concentrations (as done above) were performed in media (10% FBS). 20 uL of media form each well of the 96 well plate (80 uL media left in wells) was removed, and 20 uL of appropriate 5× drug dilutions was added to each respective well (for a 1× conc). The cells were incubated with drug for 72 hours in 37C incubator. Day 5: 10 uL of WST-8 reagent was added to each well of the 96 well plate and mixed gently. the plates were incubated up to 4 hours at 37C in dark, and absorbance readings were taken at […] and 600 nm wavelengths at 1, 2, 3 and 4h, until control absorbance levels were 1.5-2.0).
We used a panel of cell lines that included NSCLC, HNSCC, melanoma, and CRC. These cell lines are a good model system harboring similar (epi)genetic changes found in patients' tumors. We used the WST8 assay to determine the in vitro sensitivity to various MTAs with and without EM1.

H1581 (EGFR WT) = test: MTT cell survival assay; settings: EM2 (10, 30, 50 ng/ml) combined with Erlotinib 7 μM; Erl-resistant EGFR WT cells
Experimental: (§1) Cells (10^4 cells/well) were grown in 96-well plates and exposed for 72 hours to different doses of erlotinib, alone or in combination with EM2. The percentage of cell survival was determined using the 3-(4, 5-dimethylthiazol-2-yl)-2, 5-diphenyltetrazolium bromide (MTT). Single drug alone and vehicle were kept as controls.

[2] = system: HCC827 (EGFR deletion mutant line); test: MTT cell survival assay; settings: 10 ng/ml of EM2 combined with erlotinib, 72 hours
Experimental: as §1

[3] = system: H1975 (EGFR-double mutant line); test: MTT cell survival assay; settings: EM2 10 ng/ml combined with erlotinib; Erl-resistant H1975; 72 hours
Experimental: as §1

tumor necrosis factor-alpha [EM2]
reduction in the number of live cells (HoPI) (Ca-922 cell line; osimertinib and TNFa in combination): 67%
reduction in the number of live cells (HoPI) (Ca-922 cell line; single agent): 21%
response enhancement (in vitro sensitivity to various MTAs with and without EM, WST8) [1]: no, minimal and strong response enhancement
cell survival (MTT), sensitization to erlotinib (H1581 (EGFR WT)): sensitized to Erl
cell survival (MTT), sensitivity to erlotinib [2]: increased sensitivity to Erl
cell survival (MTT), response to erlotinib [3]: enhanced response

B1: interferon-alpha-1 (protein, UniProt P01562 24-189, looked up)
Interferon alpha-1/13: CDLPETHSLDNRRTLMLLAQMSRISPSSCLMDRHDFGFPQEEFDGNQFQKAPAISVLHELIQQIFNLFTTKDSSAAWDEDLLDKFCTELYQQLNDLEACVMQEERVGETPLMNADSILAVKKYFRRITLYLTEKKYSPCAWEVVRAEIMRSLSLSTNLQERLRRKE
notes: enhancer molecule, cytokine purchased from Sigma
reduction in the number of live cells (HoPI) (Ca-922 cell line; GSK458 and IFNa in combination): 26%
reduction in the number of live cells (HoPI) (Ca-922 cell line; single agent): 24%
